Measured values published in patent US20260199270A1, “METHODS FOR TREATING NEURODEGENERATIVE DISORDERS WITH TRAMIPROSATE” (Alzheon, Inc., priority 2022, published 2026).
“Also recorded” adds a separate entry of the source.

Tests used:
Type in all cases: in vivo, human
[1] = Phase 2 trial of ALZ-801: safety, ARIA and macrohemorrhages; conditions: 1 year of ALZ-801 treatment
Experimental: This is further supported by the early significant decrease in the neuronal injury marker plasma p-tau, which indicates decreased amyloid-induced neuronal stress. See e.g., FIG. 3.
Evaluation of disease modifying effects from phase 2 trial of ALZ-801 (valiltramiprosate) in subjects with early Alzheimer's disease were conducted. The study enrolled 84 patients, with early AD, who carry the APOE4/4 or APOE3/4 genotype and have an MMSE score ranging from 22 to 30 (CDR-G 0.5 or 1). Each patient received 265 mg ALZ-801 twice daily. The average MMSE score of the subjects was 26 (mean age 69 years, 52% female). Subjects were either amyloid PET positive or A+/T+ on CSF assays. CSF criteria were: Ratio of Aβ42/40×10<0.61, and p-tau181>61 pg/ml. CSF was evaluated at 52 weeks, and plasma biomarkers at every visit. […]

[2] = Phase 2 trial of ALZ-801: HV atrophy vs matched external control group from ADNI-1; conditions: compared to matched external control group from the ADNI-1 observational study; 265 mg twice daily
Experimental: (§1) Evaluation of disease modifying effects from phase 2 trial of ALZ-801 (valiltramiprosate) in subjects with early Alzheimer's disease were conducted. The study enrolled 84 patients, with early AD, who carry the APOE4/4 or APOE3/4 genotype and have an MMSE score ranging from 22 to 30 (CDR-G 0.5 or 1). Each patient received 265 mg ALZ-801 twice daily. The average MMSE score of the subjects was 26 (mean age 69 years, 52% female). Subjects were either amyloid PET positive or A+/T+ on CSF assays. CSF criteria were: Ratio of Aβ42/40×10<0.61, and p-tau181>61 pg/ml. CSF was evaluated at 52 weeks, and plasma biomarkers at every visit.
(§2) These effects were associated with benefits on a composite cognitive outcome that tests memory and learning. […] The HV preservation effects correlate with cognitive benefits (Spearman's coefficient r=0.27, p=0.02).

plasma Aβ40 = assay: Phase 2 trial of ALZ-801 in early Alzheimer's disease: plasma Aβ40; conditions: 52 weeks; 265 mg ALZ-801 orally twice daily; APOE4+ early AD subjects
Experimental: FIG. 1 illustrates the effect on plasma Abeta40 (change from baseline) following a 52 week treatment with 265 mg ALZ-801 administered orally twice daily to subjects who are APOE4+ and have early AD.
as §1, §2

plasma Aβ42 = assay: Phase 2 trial of ALZ-801 in early Alzheimer's disease: plasma Aβ42; conditions: 52 weeks; 265 mg ALZ-801 orally twice daily; APOE4+ early AD subjects
Experimental: FIG. 2 illustrates the effect on plasma Abeta42 (change from baseline) following a 52 week treatment with 265 mg ALZ-801 administered orally twice daily to subjects who are APOE4+ and have early AD.
as §1, §2

plasma p-tau181 = assay: Phase 2 trial of ALZ-801 in early Alzheimer's disease: plasma p-tau181; conditions: 52 weeks; 265 mg ALZ-801 orally twice daily; APOE4+ early AD subjects
Experimental: FIG. 3 illustrates the effect on plasma p-tau181 (change from baseline) following a 52 week treatment with 265 mg ALZ-801 administered orally twice daily to subjects who are APOE4+ and have early AD.
as §1, §2

Compound: CC(C)[C@H](N)C(=O)NCCCS(=O)(=O)O [ALZ-801, valyl-3-amino-1-propanesulfonic acid]
- events of vasogenic edema / amyloid-related imaging abnormalities (ARIA-E; b52: ARIA-E or ARIA-H) [1]: no events
- macrohemorrhages (bleeds larger than 1 cm in diameter) [1]: no events; also recorded: no macro-hemorrhages
- reduction of HV atrophy [2]: 19-23%
- reduction of plasma Aβ40 compared to baseline (plasma Aβ40): ~ 5%
- reduction of plasma Aβ42 compared to baseline (plasma Aβ42): ~ 5%
- reduction of plasma p-tau compared to baseline (plasma p-tau181): 41%
